Data on five compounds can be found in patent US5382572A, “Alkyl and acyl substituted quinolines” (Schering Corporation, priority 1993, dated 1995).

Data set [1] concerns antiviral activity of lidocaine or lidocaine hydrochloride. Conditions: added to lidocaine or lidocaine hydrochloride; Haines et al.; cited from earlier work.
Another data set relates to HSV-2 (strain MS). The data set is described as follows: HSV-β-gal assay: transient expression of beta-galactosidase in transfected HeLa cells superinfected with HSV-2. As to conditions: Human alphaherpesvirus 2, HeLa, 24 h, inhibition of beta-galactosidase expression, MOI 5 pfu/cell, read-out: ANTI-HSV ACTIVITY HSV-β-GAL ASSAY IC50. The format is cell-based. How it is done: HeLa and Vero cell cultures were maintained in Eagle's Minimal Essential Medium (EMEM) which was supplemented with glutamine, penicillin, streptomycin and 10% fetal calf serum (10% EMEM). Stock cultures of HSV-2 (strain MS available from ATCC VR-540) were grown in and harvested from Vero cells. Viral stocks were titered in Vero cells according to established procedures.
Plasmid pON 245^ori- contains the promoter of the HSV-1 thymidine kinase (tk) gene located immediately 5' of the E. coli lac Z gene. In this arrangement, the tk promoter controls transcription from the bacterial gene in transient expression assays. Additionally, an SV40 polyadenylation signal is present at the 3'-end of the lac Z gene to allow for the efficient translation of the mRNA in eucaryotic cells. The expression of beta-galactosidase in a transient assay using pON 245^ori- is dependent upon superinfection of the transfected cells with HSV. […] For example, see European Patent Application No. 8302149.5 filed Mar. 11, 1988 and published Sep. 14th 1988 as 282,330, the disclosure of which is incorporated herein by reference thereto.
HeLa cells were seeded into 96 well microtiter plates and allowed to grow to 80% confluency (approximately 35000 cells/well). One half microgram of plasmid pON 245^ori- DNA was introduced into the cells of each well by the […] precipitation technique (Grahman and Van der Eb, 1973). Four to six hours later, the cells were rinsed with Hank's Balanced Salt Solution (HBSS), overlaid with 10% EMEM and incubated at 37° C. At 24 hour post-transfection, cells were rinsed, overlaid with 10% EMEM again and re-incubated at 37° C. At 48 hours. post-transfection, cells were rinsed and overlaid with either EMEM containing 2% fetal calf serum (2% EMEM), 2% EM EM containing HSV-2 (strain MS, Multiplicity of Infection [moil =5 pfu/cell) or 2% EMEM containing HSV-2 and the appropriate concentration of the compound to be tested. Twenty-four hours later, the cells were harvested and assayed for beta-galactosidase activity as described below.
(§1) All determinations of beta-galactosidase activity were performed in 96 well microtiter plates. The intracellular level of beta-galactosidase activity in each well was determined from cell lysates of the monolayer cultures. Aliquots were assayed by incubation in the presence of beta-galactosiclasesubstrate, 4-methyl-umbelliferyl-β-D-galactoside (MUG, 125 μg/ml, Sigma), for 2 hour. The generation of fluorescent product was quantified on a Microfluor microfluorimeter (Dynatech) after addition of 0.1M glycine, pH 10.3 (Spaete and Mocarski, 1985). The inhibitory activity of a compound was plotted versus the concentration and an IC50 value (the concentration of compound required to reduce beta-galactosidase expression by 50%) was obtained for each compound tested.
Anti-HSV activity refers to the IC50 values in the HSV-β-gal assay which measures anti-viral activity in terms of inhibition of beta-galactosidase expression. The IC50 values refer to the concentration of the compound in micrograms/milliliter needed to reduce beta-galactosidase expression by 50%.

The nature of data set [2]: Compound toxicity assay: 3H-leucine incorporation (translational activity) in HeLa cells. The format is cell-based. Conditions: human, reduction of leucine incorporation, read-out: CYTOTOXICITY 3H-LEU ASSAY IC50. As for the experimental part: HeLa cells were treated with inhibitory compound for 24 hours, after which levels of translational activity were assayed.
For assay of translational activity, HeLa cultures were grown to 80% confluency in 96 well microtiter plates, treated with appropriate concentrations of compound in 2% EMEM during an overnight incubation at 37° C., then rinsed with HBSS and overlaid with […] of 2% EMEM containing 8 μCi of tritiated leucine (141 Cμ/mMol, Amersham Corp., Arlington Heights Ill.). After a 1 hour incubation at 36.5° C., the cells were rinsed twice with phosphate buffered saline (PBS) and lysed in 400 μl/well of 1×PBS, 0.5% sodium dodecyl sulphate (SDS). After a 10 min incubation at 36.5° C., the contents of the well were transferred to a well in a Millititer HA microfiltration plate (Millipore Corp., Bedford, Mass.). The TCA-insoluble proteins were precipitated onto the filter disc by a 10-minute-fixation with 5% TCA, followed by filtration under vacuum and three 10-minute-rinses with 95% ethanol. The filters were dried at room temperature, cut from the millititer plate and transferred to scintillation vials. TCA precipitable counts were assayed in 5 ml of Scintisol (Isolab, Akron, Ohio). The inhibitory activity of a compound was plotted versus the concentration and an IC50 value (that concentration of the compound required to decrease cellular translational activity by 50%) was derived for each compound.
Cytotoxicity refers to the IC50 values in the 3H-leucine (3H-Leu) incorporation. The IC50 values in this test refer to the concentration of the compound in micrograms/milliliter which reduces leucine incorporation by 50%.

The subject of a further data set is CMV (strain Towne). The data set is described as follows: CMV-β-Gal assay: beta-galactosidase transient expression assay with CMV. In kind it is cell-based. Conditions: Human betaherpesvirus 5, read-out: ANTI-CMV ACTIVITY CMV-β-Gal ASSAY IC50, CMV strain Towne. As for the experimental part: as §1
Human foreskin fibroblast (HHF) cell cultures were grown in 10% EMEM. CMV (strain Towne received from Stanford University) was grown and titered in HHF cells. Plasmids pON 249 and pON 241 Δ NH3, containing CMV promoter genes, were used in the β-galactosidase transient expression assay as shown above.

Data set [3] is described as follows: CMV toxicity assay: tritiated leucine (3H-Leu) assay in HFF cells. In kind it is cell-based. As to conditions: HFF cells (human foreskin fibroblast); read-out: CYTOTOXICITY 3H-LEU ASSAY IC50.
Another data set concerns HSV-1. Conditions: cell culture; Haines et al., U.S. Pat. No. 4,757,088; cited from earlier work.
In another data set the test system is HSV-2. Conditions: cell culture; Haines et al., U.S. Pat. No. 4,757,088; cited from earlier work.
The subject of a further data set is herpes virus infections. As to conditions: mammals; Haines et al.; cited from earlier work.
Data set [4] concerns HSV oral and genital lesions. As to conditions: humans; Haines et al.; cited from earlier work.
In a further data set the test system is HSV-2, strain MS. The data set is described as follows: Prophylactic guinea pig model of HSV-2 infection. The format is in vivo. Conditions: test compounds 60 mg/kg s.c., T.I.D., 10 days, from 24 hours before infection. As for the experimental part: The in vive assessment of anti-HSV efficacy was determined in the prophylactic guinea pig model of HSV infection described by Stansberry et al (1982). Dosing of guinea pigs comprised an initial treatment with test compound given 24 hours prior to virus infection and subsequent administration of the compound every eight hours (T.I.D.) for a total of 10 days. Test compounds were administered subcutaneously in 0.5% buffered methyl celluslose at a dose of 60 mg per kg body weight of the animal. Animals were monitored daily for the development of genital lesions and neurological symptomology, both of which were recorded and compared to the results obtained with parallel groups which received placebo or acyclovir treatment. Efficacy was evaluated for each compound by scoring the ability of the compound to ameliorate genital lesions produced by infection with HSV-2, strain MS, expressed as Maximum Lesion Scores (MLS) on a scale of 1 (least lesion) to 4 (severe lesions).

Read-outs that look alike come from different tables or passages of the source.

`CC(C)(CO)[C@@H](O)C(=O)NCCCO` [dexpanthenol]: the “enhancement of antiviral activity of lidocaine or lidocaine hydrochloride” value in data set [1] is given as “significantly enhances the antiviral activity”.

Take `CC(C)(CO)[C@@H](O)C(=O)NCCC(=O)O` [pantothenic acid]: in [1], the “enhancement of antiviral activity of lidocaine or lidocaine hydrochloride” value is recorded as “significantly enhances the antiviral activity”.

In general, IC50 refers to the concentration needed to halve the response being measured. Consider `CC(=O)Oc1c(C(OC(C)=O)OC(C)=O)c(=O)n(Cc2ccccc2)c2ccccc12` [Formula 1.6], for which the 50% inhibitory concentration (IC50) in the data set with HSV-2 (strain MS) (*Repeat) came out at 8 µg/mL; in the data set with HSV-2 (strain MS) (first value), 4 µg/mL; in the data set on CMV (strain Towne) (first value), 7 µg/mL; in the data set with CMV (strain Towne) (second value marked * (repeat)), 8 µg/mL. The values for the CC50 at 24 h in data set [2] (*Repeat) and in [2] (first value) were 37 µg/mL and 32 µg/mL, respectively. Besides, in data set [3], the CC50 was 28 µg/mL.

As for `CCN(CC)CC(=O)Nc1c(C)cccc1C` [lidocaine, 2-(diethylamino)-N-(2,6-dimethylphenyl)acetamide], in the data set with HSV-1, the “antiviral activity against HSV-1” value was “is an antiviral agent in cell culture against HSV-1 and HSV-2”. Besides, in the data set on HSV-2, the “antiviral activity against HSV-2” value was “is an antiviral agent in cell culture against HSV-1 and HSV-2”. The “treatment of herpes virus infections” value with herpes virus infections was “is able to treat herpes virus infections of mammals”. Also, in data set [4], the “treatment of HSV oral and genital lesions” value is “particularly effective in the treatment of HSV oral and genital lesions in humans”.

Take `COc1ccc(OCCCOCn2c(=O)c(C(OC(C)=O)OC(C)=O)c(OC(C)=O)c3ccccc32)c(Cl)c1` [Formula 1.14]: the 50% inhibitory concentration (IC50) is 9 µg/mL in the data set on HSV-2 (strain MS) (first value), 16 µg/mL in the data set with CMV (strain Towne) (first value) and 18 µg/mL with CMV (strain Towne) (second value marked * (repeat)). In data set [2] (first value), the CC50 at 24 h was determined as 30 µg/mL. The “MLS (Maximum Lesion Scores)” value with HSV-2, strain MS (scale of 1 (least) to 4 (severe), placebo 3) stood at 1.8. The “NEUROLOGICAL DYSFUNCTIONS (percentage animals developing loss of bladder/hindlimb control)” value with HSV-2, strain MS (placebo 87) was determined as 12%. In [3], the CC50 was determined as 50 µg/mL.
